Measurements taken from US20240366598A1, “GLUCOSE-DEPENDENT INSULINOTROPIC POLYPEPTIDE RECEPTOR ANTAGONISTS AND USES THEREOF” (Pfizer Inc., priority 2023, published 2024).

Target: T1, human Glucose-dependent Insulinotropic Polypeptide Receptor (hGIPR) (Homo sapiens, UniProt P48546)
T1 sequence (P48546 22-466): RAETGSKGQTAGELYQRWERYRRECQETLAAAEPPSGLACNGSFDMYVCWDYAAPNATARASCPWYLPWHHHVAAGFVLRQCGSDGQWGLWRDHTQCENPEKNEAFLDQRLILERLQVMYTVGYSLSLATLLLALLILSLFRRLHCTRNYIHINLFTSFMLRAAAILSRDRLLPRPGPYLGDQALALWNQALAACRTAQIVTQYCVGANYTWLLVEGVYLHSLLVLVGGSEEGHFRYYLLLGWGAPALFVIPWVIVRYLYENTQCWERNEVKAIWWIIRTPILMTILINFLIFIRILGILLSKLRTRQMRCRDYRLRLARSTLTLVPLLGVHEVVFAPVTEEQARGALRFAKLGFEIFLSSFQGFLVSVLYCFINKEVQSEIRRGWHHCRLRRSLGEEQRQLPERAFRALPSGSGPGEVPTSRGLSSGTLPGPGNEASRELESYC
Experiment: Functional in vitro GIPR antagonist potency assay (cAMP HTRF, CHO-K1 cells stably expressing hGIPR, hGIP stimulation at about EC80)
Format: cell-based
Settings: geometric mean, hGIP at estimated EC80, examples marked ^2: overall geometric mean of multiple forms (including salts) tested
Method in brief: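 CHO-K1 cells expressing hGIPR (2,000 per well) in HBSS/HEPES/0.1% BSA with 200 μM IBMX were preincubated 2 h at 37 °C with an 11-point compound series (0.5% DMSO). hGIP at about EC80 was then added for 30 min, and cAMP was read by HTRF (665/620 nm). Data were normalized between hGIP alone and full antagonism by a reference antagonist at 80 μM.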

SMILES | IC50 [nM]
CC(C)c1ccc(NC(=O)N2CCC[C@@H]2C(=O)Nc2ccc(-c3cc(F)c(O)cc3F)cc2)cc1 [Example 47, (2R)-N^2-(2′,5′-difluoro-4′-hydroxy[1,1′-biphenyl]-4-yl)-N^1-[4-(propan-2-yl)phenyl]pyrrolidine-1,2-dicarboxamide] | 47
COc1cc(-c2ccc(NC(=O)[C@H]3CCCN3C(=O)Nc3ccc(C(C)C)cc3)cc2)c(F)cc1C(=O)O [Example 89, 2-fluoro-5-methoxy-4′-[(1-{[4-(propan-2-yl)phenyl]carbamoyl}-D-prolyl)amino][1,1′-biphenyl]-4-carboxylic acid] | 18
O=C(O)c1ccc(-c2ccc(NC(=O)[C@H]3CCCN3C(=O)Nc3ccc(Cl)c(C(F)(F)F)c3)cc2)cc1 [Example 110, 4′-[(1-{[4-chloro-3-(trifluoromethyl)phenyl]carbamoyl}-D-prolyl)amino][1,1′-biphenyl]-4-carboxylic acid] | 3.7
CC(C)c1ccc(NC(=O)N2CCC[C@@H]2C(=O)Nc2ccc(-c3cccc(C(N)=O)c3)cc2)cc1 [Example 148, (2R)-N^2-(3′-carbamoyl[1,1′-biphenyl]-4-yl)-N^1-[4-(propan-2-yl)phenyl]pyrrolidine-1,2-dicarboxamide] | 240
Cc1cc(NC(=O)[C@H]2CCCN2C(=O)Nc2ccc(C(C)C)cc2)ccc1-c1ccc(C(=O)O)cc1 [Example 76, 2′-methyl-4′-[(1-{[4-(propan-2-yl)phenyl]carbamoyl}-D-prolyl)amino][1,1′-biphenyl]-4-carboxylic acid] | 9.9
COc1cc(NC(=O)N2CCC[C@@H]2C(=O)Nc2ccc(-c3ccc(C(=O)O)cc3)cc2)ccc1C(F)(F)F [Example 143, 4′-[(1-{[3-methoxy-4-(trifluoromethyl)phenyl]carbamoyl}-D-prolyl)amino][1,1′-biphenyl]-4-carboxylic acid] | 35
Cc1cc(NC(=O)N2CCC[C@@H]2C(=O)Nc2ccc(-c3cccc(C(=O)O)c3)cn2)ncc1C(C)C [Example 184, 3-{6-[(1-{[4-methyl-5-(propan-2-yl)pyridin-2-yl]carbamoyl}-D-prolyl)amino]pyridin-3-yl}benzoic acid] | 43
CC(c1ccc(NC(=O)N2CCC[C@@H]2C(=O)Nc2ccc(-c3ccc(C(=O)O)cc3)cc2)cc1)C(F)(F)F (stereo partly drawn) [Example 147, 4′-[(1-{[4-(1,1,1-trifluoropropan-2-yl)phenyl]carbamoyl}-D-prolyl)amino][1,1′-biphenyl]-4-carboxylic acid] | 13
O=C(O)c1cccc(-c2ccc(NC(=O)[C@H]3CCCN3C(=O)NCc3ccc(C(F)(F)F)cc3)nc2)c1 [Example 225, 3-(6-{[1-({[4-(trifluoromethyl)phenyl]methyl}carbamoyl)-D-prolyl]amino}pyridin-3-yl)benzoic acid] | 51
O=C(O)c1ccc(-c2ccc(NC(=O)[C@H]3CCCN3C(=O)NCc3ccc(C(F)(F)F)c(F)c3)cc2)cc1 [Example 126, 4′-{[1-({[3-fluoro-4-(trifluoromethyl)phenyl]methyl}carbamoyl)-D-prolyl]amino}[1,1′-biphenyl]-4-carboxylic acid] | 6.6
Cc1cc(-c2ccc(NC(=O)[C@H]3CCCN3C(=O)NCc3ccc(C(F)(F)F)cc3)nc2)ccc1C(=O)O [Example 192, 2-methyl-4-(6-{[1-({[4-(trifluoromethyl)phenyl]methyl}carbamoyl)-D-prolyl]amino}pyridin-3-yl)benzoic acid] | 12
O=C(O)[C@@H]1CCc2nc(NC(=O)[C@H]3CCCN3C(=O)Nc3ccc(C(F)(F)F)c(F)c3)ccc2C1 (single isomer, unassigned) [Example 220, 2-[(1-{[3-fluoro-4-(trifluoromethyl)phenyl]carbamoyl}-D-prolyl)amino]-5,6,7,8-tetrahydroquinoline-6-carboxylic acid, DIAST-1] | 47
CC(C)c1ccc(NC(=O)N2CCC[C@@H]2C(=O)Nc2ccc(-c3cccc(C(=O)O)c3)cc2)cc1 [Example 3, 4′-[(1-{[4-(Propan-2-yl)phenyl]carbamoyl}-D-prolyl)amino][1,1′-biphenyl]-3-carboxylic acid] | 17
CC(C)c1ccc(NC(=O)N2CCC[C@@H]2C(=O)Nc2ccc(-c3cccc(C(=O)O)c3)cn2)cc1 [Example 77, 3-{6-[(1-{[4-(propan-2-yl)phenyl]carbamoyl}-D-prolyl)amino]pyridin-3-yl}benzoic acid] | 16
O=C(O)c1ccc(-c2ccc(NC(=O)[C@H]3CCCN3C(=O)Nc3ccc(C4CCCC4)cc3)cc2)cc1 [Example 115, 4′-({1-[(4-cyclopentylphenyl)carbamoyl]-D-prolyl}amino)[1,1′-biphenyl]-4-carboxylic acid] | 4.8
CC(C)c1ccc(NC(=O)N2CCC[C@@H]2C(=O)Nc2ccc(-c3cccc(C(=O)O)n3)cc2)cc1 [Example 9, ammonium 6-{4-[(1-{[4-(propan-2-yl)phenyl]carbamoyl}-D-prolyl)amino]phenyl}pyridine-2-carboxylate] | 130
CC(C)c1ccc(NC(=O)N2CCC[C@@H]2C(=O)Nc2ccc(-c3ccc(C(=O)O)cc3F)cc2)cc1 [Example 56, 2-fluoro-4′-[(1-{[4-(propan-2-yl)phenyl]carbamoyl}-D-prolyl)amino][1,1′-biphenyl]-4-carboxylic acid] | 6.3
Cc1cc(-c2ccc(NC(=O)[C@H]3CCCN3C(=O)Nc3ccc(C(C)C)cc3)cc2)cnc1C(=O)O [Example 58, 3-methyl-5-{4-[(1-{[4-(propan-2-yl)phenyl]carbamoyl}-D-prolyl)amino]phenyl}pyridine-2-carboxylic acid] | 50
Cc1nc(C(=O)O)ccc1-c1ccc(NC(=O)[C@H]2CCCN2C(=O)Nc2cnc(C(C)C)c(F)c2)cc1 [Example 213, 5-{4-[(1-{[5-fluoro-6-(propan-2-yl)pyridin-3-yl]carbamoyl}-D-prolyl)amino]phenyl}-6-methylpyridine-2-carboxylic acid] | 90
Cc1cc(C(=O)O)ccc1-c1ccc(NC(=O)[C@H]2CCCN2C(=O)Nc2ccc(C(F)(F)F)cc2)nc1 [Example 172, 3-methyl-4-{6-[(1-{[4-(trifluoromethyl)phenyl]carbamoyl}-D-prolyl)amino]pyridin-3-yl}benzoic acid] | 31
Cc1cc(-c2ccc(NC(=O)[C@H]3CCCN3C(=O)Nc3ccc(C(C)C)cc3)cc2)cc(F)c1C(=O)O [Example 69, 3-fluoro-5-methyl-4′-[(1-{[4-(propan-2-yl)phenyl]carbamoyl}-D-prolyl)amino][1,1′-biphenyl]-4-carboxylic acid] | 47
CC(C)c1ccc(NC(=O)N2CCC[C@@H]2C(=O)Nc2ccc(-c3ccc(C(=O)O)cn3)cc2)cc1 [Example 2, 6-{4-[(1-{[4-(Propan-2-yl)phenyl]carbamoyl}-D-prolyl)amino]phenyl}pyridine-3-carboxylic acid] | 74
CC(C)c1ccc(NC(=O)N2CCC[C@@H]2C(=O)Nc2ccc(-c3ccc(C(=O)O)c(F)c3)cn2)cc1 [Example 199, 2-fluoro-4-{6-[(1-{[4-(propan-2-yl)phenyl]carbamoyl}-D-prolyl)amino]pyridin-3-yl}benzoic acid] | 71
O=C(O)c1ccc(-c2ccc(NC(=O)[C@H]3CCCN3C(=O)Nc3ccc(C4CCCCC4)cc3)cc2)cc1 [Example 114, 4′-({1-[(4-cyclohexylphenyl)carbamoyl]-D-prolyl}amino)[1,1′-biphenyl]-4-carboxylic acid] | 40
O=C(O)c1ccc(-c2ccc(NC(=O)[C@H]3CCCN3C(=O)NCc3c(F)cc(Cl)cc3F)cc2)cc1 [Example 133, 4′-[(1-{[(4-chloro-2,6-difluorophenyl)methyl]carbamoyl}-D-prolyl)amino][1,1′-biphenyl]-4-carboxylic acid] | 180
CC(C)c1ccc(NC(=O)N2C[C@@H]3C[C@@H]3[C@@H]2C(=O)Nc2ccc(-c3cccc(C(=O)O)c3)cc2)cc1 [Example 159, 4′-{[(1S,2R,5R)-3-{[4-(propan-2-yl)phenyl]carbamoyl}-3-azabicyclo[3.1.0]hexane-2-carbonyl]amino}[1,1′-biphenyl]-3-carboxylic acid] | 110
Cc1cc(-c2ccc(NC(=O)[C@H]3CCCN3C(=O)NCc3ccc(C(F)(F)F)c(F)c3)nc2)ccc1C(=O)O [Example 190, 4-(6-{[1-({[3-fluoro-4-(trifluoromethyl)phenyl]methyl}carbamoyl)-D-prolyl]amino}pyridin-3-yl)-2-methylbenzoic acid] | 9.9
COc1cc(C(=O)O)ccc1-c1ccc(NC(=O)[C@H]2CCCN2C(=O)Nc2ccc(C(C)C)c(C)c2)nc1 [Example 156, 3-methoxy-4-{6-[(1-{[3-methyl-4-(propan-2-yl)phenyl]carbamoyl}-D-prolyl)amino]pyridin-3-yl}benzoic acid] | 45
Cc1cc(-c2ccc(NC(=O)[C@H]3CCCN3C(=O)Nc3ccc(C(C)C)cc3)cc2)cc(C)c1C(=O)O [Example 53, 3,5-dimethyl-4′-[(1-{[4-(propan-2-yl)phenyl]carbamoyl}-D-prolyl)amino][1,1′-biphenyl]-4-carboxylic acid] | 15
